From PubChem BioAssay (NCI)
“And” between values parts separate entries of the source, which are not always exact repeats. Equal entries are not always repeated.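 Where inhibition never reached the appropriate level, the endpoint shown equals the highest concentration tested. Otherwise, values were interpolated linearly from a five-concentration, 48-hour dose response in 96-well plates. The concentration for 50% growth inhibition is given as GI50. TGI marks complete inhibition of growth.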

What was measured:
Experiment in all cases: DTP human tumour cell line panel, 48 h
COLO 205 colon = test system: COLO 205 colon
HL-60(TB) leukemia = test system: HL-60(TB) leukemia
HT29 colon = test system: HT29 colon
MALME-3M melanoma = test system: MALME-3M melanoma
NCI-H460 lung = test system: NCI-H460 lung
NCI-H522 lung = test system: NCI-H522 lung
PC-3 prostate = test system: PC-3 prostate
RXF 393 renal = test system: RXF 393 renal
SNB-19 CNS = test system: SNB-19 CNS
SR leukemia = test system: SR leukemia

Structure (SMILES)	TGI (COLO 205 colon)	TGI (HL-60(TB) leukemia)	TGI (HT29 colon)	TGI (MALME-3M melanoma)	TGI (NCI-H460 lung)	TGI (NCI-H522 lung)	TGI (PC-3 prostate)	TGI (RXF 393 renal)	TGI (SNB-19 CNS)	TGI (SR leukemia)	GI50 (COLO 205 colon)	GI50 (HL-60(TB) leukemia)	GI50 (HT29 colon)	GI50 (MALME-3M melanoma)	GI50 (NCI-H460 lung)	GI50 (NCI-H522 lung)	GI50 (PC-3 prostate)	GI50 (RXF 393 renal)	GI50 (SNB-19 CNS)	GI50 (SR leukemia)
Cc1noc(NC(=O)Nc2ccccc2F)c1C#N	> 100 µM	> 100 µM	> 37.7 µM	> 51.9 µM	> 34.2 µM	> 34.7 µM	> 41.3 µM	> 100 µM	> 50.3 µM	> 100 µM										
COCCN(Cc1ccc(F)cc1)c1ccc(CO)c(Cl)c1	31.8 µM	> 75.4 µM	> 100 µM	> 100 µM	> 43.6 µM	> 100 µM	> 100 µM	> 34.6 µM	> 100 µM	> 100 µM	11.1 µM	27.4 µM	22.4 µM	> 57.1 µM	1.9 µM	39.1 µM	29.4 µM	4.9 µM	33.4 µM	47.9 µM
Nc1nccc(-c2c(-c3ccc(F)cc3)nn3cc(C(F)(F)F)ccc23)n1	> 25 µM	> 25 µM	> 25 µM	> 25 µM	> 25 µM	> 25 µM	> 25 µM	> 25 µM	> 25 µM	> 25 µM	> 25 µM	> 25 µM	> 25 µM	> 25 µM	> 25 µM	> 25 µM	> 25 µM	> 25 µM	> 25 µM	> 25 µM
COC12C(COC(=O)NCCO)C3=C(C(=O)C(C)=C(N)C3=O)N1CC1NC12 (stereo unspecified)	85.8 µM	> 264 µM	> 264 µM	64 µM and 101 µM	30.7 µM and 49.4 µM	33.5 µM and 99.6 µM	248 µM	> 264 µM	169 µM	> 264 µM			52.7 µM	45.3 µM		36.1 µM		141 µM		
S=C1SCN(Cc2ccccc2)CN1Cc1ccco1	14.3 µM	> 100 µM	13.9 µM	23.5 µM	22.3 µM	9.92 µM	61.6 µM	5.53 µM	> 100 µM	> 100 µM	4.4 µM	5.91 µM	3.17 µM	8.44 µM	5.25 µM	2.59 µM	5.75 µM	2 µM	35.5 µM	1.87 µM
Cc1cc(Br)c(NC(=O)c2c(-c3c(Cl)cccc3Cl)noc2C)c(Br)c1	> 100 µM	> 100 µM	> 100 µM	> 100 µM	> 100 µM	> 100 µM	> 100 µM	> 100 µM	> 100 µM	> 100 µM	> 100 µM	> 100 µM	> 100 µM	> 100 µM	> 100 µM	> 100 µM	> 100 µM	71.9 µM	> 100 µM	> 100 µM
COc1ccccc1CNCCN1C(=O)c2ccc3c4c(ccc(c24)C1=O)C(=O)N(CCNCc1ccccc1OC)C3=O	0.345 µM	0.607 µM	0.447 µM	1.55 µM	0.458 µM	0.314 µM	0.963 µM	0.397 µM		0.581 µM	0.169 µM	0.265 µM	0.215 µM	0.386 µM	0.208 µM	0.137 µM	0.317 µM	0.18 µM		0.178 µM
CC(=O)O[C@H]1CC2C(C3CC[C@H](C(C)CCC(=O)O)[C@]31C)[C@H](OC(C)=O)C[C@@H]1CC3(CC[C@]21C)OOC1(CCC(C)CC1)OO3 (stereo partly specified)	8.21 µM and 4.4 µM	11.2 µM and 4.41 µM	12.5 µM and 10.4 µM	28.3 µM and 8.04 µM	16.7 µM and 7.64 µM	12.3 µM and 3.48 µM	17.2 µM and 14.2 µM	27.9 µM and 23.9 µM	20.1 µM and 14.7 µM	3.82 µM and 3.94 µM				12.5 µM and 2.73 µM					7.57 µM and 3.57 µM	
C#Cc1ccc(-n2c(/C=C/c3ccc(O)cc3)nc3ncccc3c2=O)cc1	> 100 µM	30 µM	> 100 µM	> 100 µM	14.1 µM	6.04 µM	47.9 µM	4.41 µM	> 100 µM	> 100 µM	> 100 µM	3.2 µM	52.8 µM	5.13 µM	3.33 µM	2 µM	3.87 µM	1.48 µM	6.26 µM	3.54 µM
COc1cc(-c2nccc3[nH]c(-c4ccc5cc[nH]c5c4)nc23)cc(OC)c1OC	< 0.01 µM	< 0.01 µM	1.08 µM	3.2 µM	1.04 µM		4.74 µM		15.8 µM	11.9 µM	< 0.01 µM	< 0.01 µM	< 0.01 µM	1.29 µM	< 0.01 µM		< 0.01 µM		< 0.01 µM	< 0.01 µM
CC(=O)NC1C(O[C@H]2C[C@H]3[C@@H]4CC=C5C[C@@H](O)CC[C@]5(C)[C@H]4CC[C@]3(C)[C@H]2[C@H](C)C(=O)CCC(C)C)OCC(O)C1O (stereo partly specified)	8.75 µM		15.3 µM	9.78 µM	6.1 µM	18.8 µM	10.3 µM	1.41 µM	11 µM	22.8 µM	2.13 µM		5.29 µM	2.33 µM	1.71 µM	8.72 µM	2.05 µM	0.398 µM	3.31 µM	1.56 µM
CNCc1ccc(-c2cc(-c3nc(-c4ccc(S(=O)(=O)C(C)C)cc4)cnc3N)on2)cc1	24.1 µM	10.6 µM	1.83 µM		1.6 µM	39.2 µM	8.32 µM		36.8 µM	2.84 µM	10.8 µM	1.35 µM	0.492 µM		0.322 µM	14.7 µM	1.97 µM		12.1 µM	0.132 µM
COc1cc2nnc3c4cccnc4[nH]c3c2cc1OC	16 µM and 11.6 µM	50 µM		22.9 µM and 5.68 µM	12.9 µM and 8.63 µM	16.6 µM and 7.6 µM	50 µM and > 100 µM		42.4 µM and 15.4 µM		6.92 µM and 2.96 µM	0.111 µM	1.81 µM and 1.34 µM	7.54 µM and 2.28 µM	2.84 µM and 2.46 µM	1.65 µM and 2.05 µM		1.17 µM and 0.707 µM	9.04 µM and 2.77 µM	0.117 µM and 0.0395 µM
Cc1ccc(NC(=O)c2cc(S(=O)(=O)Nc3nnc(-c4ccccc4)c(-c4ccccc4)n3)c(SCc3ccccc3)cc2Cl)cc1	55.6 µM	41.6 µM			> 100 µM	> 100 µM	49.1 µM	47.2 µM	57.1 µM	> 100 µM	25 µM	17.2 µM			26.4 µM	42.4 µM	18.2 µM	25.6 µM	20.4 µM	36 µM
